Calls of active or inactive are those of the source. The rule behind the calls is not given here. Where a SMILES comes first, the peptide text is derived from it. Bridges are numbered along the chain shown (N, C = ends). [ ]: non-standard residue; d: D form. hArg = N=C(N)NCCCC[C@H](N)C(=O)O; Mpa = O=C(O)CCS
Experiments:
[1] = target: T1, Integrin subunit alpha 2b/beta-3 (Rattus norvegicus) (UniProt D3ZAC0+Q8R2H2); test: Inhibition of GP2b/3a in rat platelet-rich plasma assessed as reduction in arachidonic acid-induced platelet aggregation at 10^-8 to 10^-2 M after 5 mins by aggregometric analysis
[2] = system: Rattus norvegicus; test: Anti-thrombotic activity in Sprague-Dawley rat arterial thrombosis model assessed as reduction in thrombus weight at 16.7 umol/kg, po pretreated for 30 mins followed by thrombosis induction measured after 15 mins; assay type: functional, organism-based
[3] = system: Platelet; test: Antiplatelet activity in rat platelet-rich plasma assessed as inhibition of arachidonic acid-induced platelet aggregation by atomic force microscopic method; assay type: functional
[4] = target: T1, Integrin subunit alpha 2b/beta-3 (Rattus norvegicus); test: Inhibition of GP2b/3a in rat platelet-rich plasma assessed as reduction in arachidonic acid-induced platelet aggregation at 10^-8 to 10^-5 M after 5 mins by aggregometric analysis
[5] = target: T2, Integrin subunit alpha 2b/beta-3 (Rattus norvegicus, UniProt D3ZAC0+Q8R2H2); test: Binding affinity to GP2b/3a in rat blood assessed as conformational change by measuring soluble GP2b/3a levels after 12 hrs by UV-spectrophotometric analysis
T2 sequence (D3ZAC0 whole entry): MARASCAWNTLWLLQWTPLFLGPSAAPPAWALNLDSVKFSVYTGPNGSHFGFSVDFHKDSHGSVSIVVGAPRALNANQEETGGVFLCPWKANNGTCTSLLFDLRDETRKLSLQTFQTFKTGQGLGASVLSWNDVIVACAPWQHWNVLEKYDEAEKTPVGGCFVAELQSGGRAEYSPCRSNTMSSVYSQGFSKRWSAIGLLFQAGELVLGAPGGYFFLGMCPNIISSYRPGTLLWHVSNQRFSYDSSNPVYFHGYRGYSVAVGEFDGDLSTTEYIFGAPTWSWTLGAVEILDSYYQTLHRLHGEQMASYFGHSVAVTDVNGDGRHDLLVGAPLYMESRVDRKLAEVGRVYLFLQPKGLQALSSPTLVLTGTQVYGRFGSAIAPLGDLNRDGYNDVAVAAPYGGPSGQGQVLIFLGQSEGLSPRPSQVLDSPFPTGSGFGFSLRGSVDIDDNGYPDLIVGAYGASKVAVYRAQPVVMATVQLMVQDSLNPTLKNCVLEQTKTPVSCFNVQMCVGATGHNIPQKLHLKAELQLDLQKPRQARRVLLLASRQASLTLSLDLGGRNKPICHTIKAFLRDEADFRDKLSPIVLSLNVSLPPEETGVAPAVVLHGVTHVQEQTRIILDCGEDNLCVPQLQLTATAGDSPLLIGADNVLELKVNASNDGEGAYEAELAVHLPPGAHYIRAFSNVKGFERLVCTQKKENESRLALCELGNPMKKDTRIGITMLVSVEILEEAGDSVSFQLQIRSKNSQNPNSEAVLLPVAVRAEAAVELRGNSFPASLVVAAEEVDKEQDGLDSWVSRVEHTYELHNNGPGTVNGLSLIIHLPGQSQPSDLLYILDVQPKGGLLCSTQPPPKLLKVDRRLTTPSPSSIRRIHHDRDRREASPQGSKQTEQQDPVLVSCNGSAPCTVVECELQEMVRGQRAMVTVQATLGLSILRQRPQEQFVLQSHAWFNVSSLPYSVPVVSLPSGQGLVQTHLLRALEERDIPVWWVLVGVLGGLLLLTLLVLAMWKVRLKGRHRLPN
T2 sequence (Q8R2H2 whole entry): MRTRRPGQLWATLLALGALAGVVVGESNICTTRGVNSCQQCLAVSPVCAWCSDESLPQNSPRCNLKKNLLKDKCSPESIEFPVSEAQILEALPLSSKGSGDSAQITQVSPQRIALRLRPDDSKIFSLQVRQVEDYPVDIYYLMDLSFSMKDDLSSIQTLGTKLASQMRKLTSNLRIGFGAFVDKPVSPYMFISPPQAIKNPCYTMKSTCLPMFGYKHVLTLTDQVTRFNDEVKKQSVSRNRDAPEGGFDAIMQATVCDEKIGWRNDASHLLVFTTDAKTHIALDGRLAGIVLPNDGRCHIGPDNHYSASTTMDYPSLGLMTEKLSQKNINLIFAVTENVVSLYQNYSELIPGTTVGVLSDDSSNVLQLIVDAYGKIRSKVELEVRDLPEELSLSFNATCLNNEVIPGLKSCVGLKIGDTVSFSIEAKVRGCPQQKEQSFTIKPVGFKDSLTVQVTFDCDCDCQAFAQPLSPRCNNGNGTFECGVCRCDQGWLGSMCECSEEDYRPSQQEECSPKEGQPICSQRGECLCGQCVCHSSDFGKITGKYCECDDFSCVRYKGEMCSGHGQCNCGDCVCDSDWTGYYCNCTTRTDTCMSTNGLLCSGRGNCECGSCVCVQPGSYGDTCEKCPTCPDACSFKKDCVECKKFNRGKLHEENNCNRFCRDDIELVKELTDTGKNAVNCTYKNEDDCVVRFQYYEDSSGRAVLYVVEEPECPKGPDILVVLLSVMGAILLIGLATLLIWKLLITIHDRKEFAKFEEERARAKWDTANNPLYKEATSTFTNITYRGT

[6] = system: Rattus norvegicus; test: Anti-thrombotic activity in Sprague-Dawley rat arterial thrombosis model assessed as reduction in thrombus weight at 1 umol/kg, po pretreated for 30 mins followed by thrombosis induction measured after 15 mins; assay type: functional, organism-based
[7] = system: Rattus norvegicus; test: Antiplatelet activity in Sprague Dawley rat arterial thrombosis model assessed as downregulation of GP2b/3a protein expression in plasma administered at 1 umol/kg, po by ELISA; assay type: functional, organism-based

Structure (SMILES) | inhibition [1] | inhibition [4] | EC50 [5] [nM] | Activity [2] | Activity [3] | MEC [3] | Activity [6] | Activity [7]
N=C(N)NCCC[C@H](N)C(=O)NCC(=O)N[C@@H](CC(=O)O)C(=O)N[C@@H](CO)C(=O)O | Active | – | – | – | – | – | – | –
CC(=O)Oc1ccccc1C(=O)O | – | – | – | Active | – | – | – | –
N=C(N)NCCCC[C@@H]1NC(=O)CCSSC[C@@H](C(N)=O)NC(=O)[C@@H]2CCCN2C(=O)[C@H](Cc2c[nH]c3ccccc23)NC(=O)[C@H](CC(=O)O)NC(=O)CNC1=O ([Mpa][hArg]GDWPC-NH2; disulfide 1-7) | – | Active | – | – | – | – | – | –

The next lines start with results.

inhibition [1] | inhibition [4] | EC50 [5] [nM] | Structure (SMILES) | Activity [2] | Activity [3] | MEC [3] | Activity [6] | Activity [7]
– | Active | 1160 | C[C@H]1N[C@H](C(=O)O)Cc2c1[nH]c1ccccc21 | – | Dose-dependent effect | 1 ×10⁻⁶ M | Active | Active
– | Active | 1660 | C[C@@H]1N[C@H](C(=O)O)Cc2c1[nH]c1ccccc21 | – | Dose-dependent effect | 1 ×10⁻⁵ M | Active | Active
